According to patent US11040981B2, “Pyrrolotriazine compounds and methods of inhibiting TAM kinases” (Syros Pharmaceuticals, Inc., priority 2017, dated 2021):

Experiments:
TYRO3 = target: T1, TYRO3 (Homo sapiens, UniProt Q06418); assay: TR-FRET kinase activity assay, TYRO3; format: biochemical; conditions: ATP at Km, 60 minutes
T1 sequence (Q06418 41-890): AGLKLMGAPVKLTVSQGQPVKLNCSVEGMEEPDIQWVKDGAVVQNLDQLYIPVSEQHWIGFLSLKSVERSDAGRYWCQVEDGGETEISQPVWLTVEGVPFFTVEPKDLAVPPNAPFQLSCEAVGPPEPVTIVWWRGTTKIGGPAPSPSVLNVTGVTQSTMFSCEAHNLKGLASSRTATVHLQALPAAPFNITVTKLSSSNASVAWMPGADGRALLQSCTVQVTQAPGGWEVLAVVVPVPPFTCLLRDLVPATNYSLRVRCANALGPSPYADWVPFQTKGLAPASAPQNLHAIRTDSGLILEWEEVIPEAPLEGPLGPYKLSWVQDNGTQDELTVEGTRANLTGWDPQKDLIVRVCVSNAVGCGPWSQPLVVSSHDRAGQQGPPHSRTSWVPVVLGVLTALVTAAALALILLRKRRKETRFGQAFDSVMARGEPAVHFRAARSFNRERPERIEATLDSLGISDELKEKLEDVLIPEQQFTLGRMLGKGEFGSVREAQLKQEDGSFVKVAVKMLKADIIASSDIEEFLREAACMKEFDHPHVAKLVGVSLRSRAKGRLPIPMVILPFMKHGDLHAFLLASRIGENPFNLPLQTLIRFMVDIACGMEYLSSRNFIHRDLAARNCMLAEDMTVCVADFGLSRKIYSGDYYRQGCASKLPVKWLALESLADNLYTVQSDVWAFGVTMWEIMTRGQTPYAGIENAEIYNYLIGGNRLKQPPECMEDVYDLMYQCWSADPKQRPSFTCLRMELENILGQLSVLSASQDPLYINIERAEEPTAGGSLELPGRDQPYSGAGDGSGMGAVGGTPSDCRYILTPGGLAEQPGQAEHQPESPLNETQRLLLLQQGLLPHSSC
In short: (§1)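 Each kinase phosphorylated a fluorescent-labelled tyrosine peptide in 50 mM HEPES pH 7.5, 10 mM MgCl2, 1 mM EGTA, 0.01% Brij 35, 1 mM DTT at RT, with ATP at Km for that enzyme. After 60 min, EDTA quench and Eu-anti-phosphotyrosine antibody (30 min, dark); IC50 from TR-FRET decrease.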

MERTK = target: T2, MERTK (Homo sapiens, UniProt Q12866); assay: TR-FRET kinase activity assay, MERTK; format: biochemical; conditions: for IC50: TR-FRET activity assay, ATP at Km, 60 minutes, read-out: Mer IC50; for FLT3/Mer ratio (FLT3 IC50/Mer IC50): ratio calculated as FLT3 IC50/Mer IC50
T2 sequence (Q12866 21-999): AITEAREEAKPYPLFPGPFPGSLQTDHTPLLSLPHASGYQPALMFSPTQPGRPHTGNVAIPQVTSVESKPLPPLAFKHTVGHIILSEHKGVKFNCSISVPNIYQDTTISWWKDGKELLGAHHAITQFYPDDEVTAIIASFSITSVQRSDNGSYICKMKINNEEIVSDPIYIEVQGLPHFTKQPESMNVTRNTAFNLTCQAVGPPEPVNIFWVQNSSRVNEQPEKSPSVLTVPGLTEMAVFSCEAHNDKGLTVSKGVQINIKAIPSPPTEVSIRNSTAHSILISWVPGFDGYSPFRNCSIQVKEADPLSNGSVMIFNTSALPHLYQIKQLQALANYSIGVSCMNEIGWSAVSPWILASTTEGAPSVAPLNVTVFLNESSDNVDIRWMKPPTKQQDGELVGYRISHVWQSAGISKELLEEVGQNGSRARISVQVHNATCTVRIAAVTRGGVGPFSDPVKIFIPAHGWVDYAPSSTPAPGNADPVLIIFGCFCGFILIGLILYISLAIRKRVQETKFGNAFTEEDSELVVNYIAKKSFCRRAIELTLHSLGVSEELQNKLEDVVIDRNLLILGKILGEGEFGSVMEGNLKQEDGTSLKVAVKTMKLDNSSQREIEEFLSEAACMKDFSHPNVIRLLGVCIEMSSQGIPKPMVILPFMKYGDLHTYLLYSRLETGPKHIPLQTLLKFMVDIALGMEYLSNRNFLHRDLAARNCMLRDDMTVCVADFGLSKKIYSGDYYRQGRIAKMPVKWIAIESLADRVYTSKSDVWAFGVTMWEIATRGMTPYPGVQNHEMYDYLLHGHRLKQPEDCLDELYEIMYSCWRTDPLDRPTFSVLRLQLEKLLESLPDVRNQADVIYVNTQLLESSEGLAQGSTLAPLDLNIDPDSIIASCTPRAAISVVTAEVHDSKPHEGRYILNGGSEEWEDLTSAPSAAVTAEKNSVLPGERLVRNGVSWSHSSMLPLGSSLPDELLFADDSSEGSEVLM
In short: as §1

Row | IC50 (TYRO3) [nM] | IC50 (MERTK) [nM] | FLT3/Mer ratio (FLT3 IC50/Mer IC50) (MERTK) | SMILES
1 | ≤ 100 | ≤ 100 | +++ (“+++” represents a ratio of >100) | CNS(=O)(=O)c1ccc(-c2cc([C@H]3CC[C@H](O)CC3)n3nc(N[C@@H](C)COC(F)F)ncc23)cn1 [Compound 424]
2 | ≤ 100 | ≤ 100 | +++ (“+++” represents a ratio of >100) | COC[C@H](C)Nc1ncc2c(C3=CCN(C(=O)OC(C)(C)C)CC3)cc([C@H]3CC[C@H](O)CC3)n2n1 [Compound 425]
3 | ≤ 100 | ≤ 100 | +++ (“+++” represents a ratio of >100) | COC[C@H](C)Nc1ncc2c(-c3ccnc(N4CC5(COC5)C4)c3)cc([C@H]3CC[C@H](O)CC3)n2n1 [Compound 426]
4 | ≤ 100 | ≤ 100 | +++ (“+++” represents a ratio of >100) | COC[C@H](C)Nc1ncc2c(-c3ccnc(N4CCC5(CC4)COC5)c3)cc([C@H]3CC[C@H](O)CC3)n2n1 [Compound 427]
5 | ≤ 100 | ≤ 100 | +++ (“+++” represents a ratio of >100) | COC[C@H](C)Nc1ncc2c(-c3ccnc(N4CCC5(CCO5)CC4)c3)cc([C@H]3CC[C@H](O)CC3)n2n1 [Compound 430]
6 | ≤ 100 | ≤ 100 | +++ (“+++” represents a ratio of >100) | COC[C@H](C)Nc1ncc2c(-c3ccnc(NC4CCOCC4)c3)cc([C@H]3CC[C@H](O)CC3)n2n1 [Compound 431]
7 | ≤ 100 | ≤ 100 | +++ (“+++” represents a ratio of >100) | CCC(=O)N1CCN(c2cc(-c3cc([C@H]4CC[C@H](O)CC4)n4nc(N[C@@H](C)COC)ncc34)ccn2)CC1 [Compound 432]
8 | ≤ 100 | ≤ 100 | +++ (“+++” represents a ratio of >100) | COC[C@H](C)Nc1ncc2c(-c3ccnc(N4CCNCC4)c3)cc([C@H]3CC[C@H](O)CC3)n2n1 [Compound 434]
9 | ≤ 100 | ≤ 100 | +++ (“+++” represents a ratio of >100) | C[C@@H](COC(F)F)Nc1ncc2c(-c3cnn(CCS(C)(=O)=O)c3)cc([C@H]3CC[C@H](O)CC3)n2n1 [Compound 436]
10 | ≤ 100 | ≤ 100 | +++ (“+++” represents a ratio of >100) | C[C@@H](COC(F)F)Nc1ncc2c(-c3cnn(CCC#N)c3)cc([C@H]3CC[C@H](O)CC3)n2n1 [Compound 437]
11 | ≤ 100 | ≤ 100 | +++ (“+++” represents a ratio of >100) | COC[C@H](C)Nc1ncc2c(-c3ccnc(N4CCOC4=O)c3)cc([C@H]3CC[C@H](O)CC3)n2n1 [Compound 438]
12 | ≤ 100 | ≤ 100 | +++ (“+++” represents a ratio of >100) | COC[C@H](C)Nc1ncc2c(-c3cnn(CC4CCO4)c3)cc([C@H]3CC[C@H](O)CC3)n2n1 (stereo partly drawn) [Compound 439]
13 | ≤ 100 | ≤ 100 | +++ (“+++” represents a ratio of >100) | COC[C@H](C)Nc1ncc2c(-c3cnn(C(C)(C)c4nnc(C)o4)c3)cc([C@H]3CC[C@H](O)CC3)n2n1 [Compound 440]
14 | ≤ 100 | ≤ 100 | +++ (“+++” represents a ratio of >100) | COC[C@H](C)Nc1ncc2c(-c3csc(C(=O)N4CCOCC4)c3)cc([C@H]3CC[C@H](O)CC3)n2n1 [Compound 444]
15 | ≤ 100 | ≤ 100 | +++ (“+++” represents a ratio of >100) | COC[C@H](C)Nc1ncc2c(-c3ccnc(N4C[C@H]5CC[C@@H](C4)O5)c3)cc([C@H]3CC[C@H](O)CC3)n2n1 [Compound 445]
16 | ≤ 100 | ≤ 100 | +++ (“+++” represents a ratio of >100) | C[C@@H](CC(F)(F)F)Nc1ncc2c([C@H]3CC[C@@H](C(=O)N4CCOCC4)CC3)cc([C@H]3CC[C@H](O)CC3)n2n1 [Compound 446]
17 | ≤ 100 | ≤ 100 | +++ (“+++” represents a ratio of >100) | COC[C@H](C)Nc1ncc2c(C#CC(C)(C)C(=O)N3CCOCC3)cc([C@H]3CC[C@H](O)CC3)n2n1 [Compound 449]
18 | ≤ 100 | ≤ 100 | +++ (“+++” represents a ratio of >100) | COC[C@H](C)Nc1ncc2c(-c3cnn(C(C)(C)C(=O)N4CCC(C)(O)CC4)c3)cc([C@H]3CC[C@H](O)CC3)n2n1 [Compound 450]
19 | ≤ 100 | ≤ 100 | +++ (“+++” represents a ratio of >100) | COC[C@H](C)Nc1ncc2c(-c3cnn(C(C)(C)C(=O)N4CCC(C)(C#N)CC4)c3)cc([C@H]3CC[C@H](O)CC3)n2n1 [Compound 451]
20 | ≤ 100 | ≤ 100 | +++ (“+++” represents a ratio of >100) | COC[C@H](C)Nc1ncc2c(-c3cnn(C(C)(C)CN4CCOCC4)c3)cc([C@H]3CC[C@H](O)CC3)n2n1 [Compound 459]
21 | ≤ 100 | ≤ 100 | +++ (“+++” represents a ratio of >100) | COC[C@H](C)Nc1ncc2c(-c3ccc(C(C)(C)C(=O)N4CCOCC4)s3)cc([C@H]3CC[C@H](O)CC3)n2n1 [Compound 460]

Row | SMILES | IC50 (TYRO3) [nM] | IC50 (MERTK) [nM] | FLT3/Mer ratio (FLT3 IC50/Mer IC50) (MERTK)
22 | C[C@@H](CC(F)(F)F)Nc1ncc2c(C3=CCNCC3)cc([C@H]3CC[C@H](O)CC3)n2n1 [Compound 442] | ≤ 100 | ≤ 100 | ++ (“++” represents a ratio of between 10 and 100)
23 | COC[C@H](C)Nc1ncc2c(C3=CCNCC3)cc([C@H]3CC[C@H](O)CC3)n2n1 [Compound 443] | ≤ 100 | ≤ 100 | +++ (“+++” represents a ratio of >100)
24 | C[C@H](CC(F)(F)F)Nc1ncc2c(C3=C[C@H]4CC[C@@H](C3)N4C(=O)OC(C)(C)C)cc([C@H]3CC[C@H](O)CC3)n2n1 [Compound 456] | ≤ 100 | ≤ 100 | +++ (“+++” represents a ratio of >100)
25 | COC[C@H](C)Nc1ncc2c(C3=C[C@@H]4CC[C@H](C3)N4)cc([C@H]3CC[C@H](O)CC3)n2n1 [Compound 461] | ≤ 100 | ≤ 100 | +++ (“+++” represents a ratio of >100)
26 | COC[C@H](C)Nc1ncc2c(C3=C[C@@H]4CC[C@H](C3)N4C(C)=O)cc([C@H]3CC[C@H](O)CC3)n2n1 [Compound 462] | ≤ 100 | ≤ 100 | +++ (“+++” represents a ratio of >100)
27 | COC[C@H](C)Nc1ncc2c(C3=C[C@@H]4CC[C@H](C3)N4C(=O)N3CCOCC3)cc([C@H]3CC[C@H](O)CC3)n2n1 [Compound 463] | ≤ 100 | ≤ 100 | +++ (“+++” represents a ratio of >100)
